The text below walks through data of article PMC3677616, “Interaction of Human Dopa Decarboxylase with L-Dopa: Spectroscopic and Kinetic Studies as a Function of pH” (BioMed Research International, 2013).

The target of data set [1] is T1, hDDC (human Dopa decarboxylase) (Homo sapiens, UniProt P20711).
T1 construct: gene DDC; homodimer
T1 sequence (P20711 1-480): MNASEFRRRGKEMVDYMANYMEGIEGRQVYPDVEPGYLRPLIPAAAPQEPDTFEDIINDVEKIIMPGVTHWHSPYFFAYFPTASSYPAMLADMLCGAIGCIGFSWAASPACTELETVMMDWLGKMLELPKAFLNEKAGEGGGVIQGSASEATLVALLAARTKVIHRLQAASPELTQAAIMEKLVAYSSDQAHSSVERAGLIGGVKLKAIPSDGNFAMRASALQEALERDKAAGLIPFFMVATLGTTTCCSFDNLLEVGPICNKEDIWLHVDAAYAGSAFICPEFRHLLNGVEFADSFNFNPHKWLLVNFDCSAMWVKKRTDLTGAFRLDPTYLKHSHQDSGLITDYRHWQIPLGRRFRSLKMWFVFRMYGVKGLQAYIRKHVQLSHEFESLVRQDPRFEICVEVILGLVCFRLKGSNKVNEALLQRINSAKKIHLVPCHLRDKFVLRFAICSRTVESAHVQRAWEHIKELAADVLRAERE
The data set can be described thus: quenching of intrinsic fluorescence of apoenzyme, tight-binding quadratic fit. The settings on record: read-out: KD(PLP).

For data set [2], the target named is T1, hDDC (human Dopa decarboxylase). The data set can be described thus: stopped-flow absorbance at […] nm, hyperbolic fit of kobs (two-step binding). The settings on record: read-out: K1.
Substrate in data set [3]: N[C@@H](Cc1ccc(O)c(O)c1)C(=O)O
The data set can be described thus: steady-state decarboxylation, spectrophotometric assay, Michaelis-Menten fit. Type of data set: biochemical, Homo sapiens. The settings on record: pH 6.0, 50 mM Bis-Tris-propane, 10 μM PLP, 25°C.

As to `Cc1ncc(COP(=O)(O)O)c(C=O)c1O` [PLP], the Kd in data set [1] worked out at 0.2 µM.
Turning to `N[C@@H](Cc1ccc(O)c(O)c1)C(=O)O` [L-Dopa], the Kd in data set [2] is 320 ± 20 µM.

B1: hDDC (human Dopa decarboxylase) (Homo sapiens) (protein)
chain: MNASEFRRRGKEMVDYMANYMEGIEGRQVYPDVEPGYLRPLIPAAAPQEPDTFEDIINDVEKIIMPGVTHWHSPYFFAYFPTASSYPAMLADMLCGAIGCIGFSWAASPACTELETVMMDWLGKMLELPKAFLNEKAGEGGGVIQGSASEATLVALLAARTKVIHRLQAASPELTQAAIMEKLVAYSSDQAHSSVERAGLIGGVKLKAIPSDGNFAMRASALQEALERDKAAGLIPFFMVATLGTTTCCSFDNLLEVGPICNKEDIWLHVDAAYAGSAFICPEFRHLLNGVEFADSFNFNPHKWLLVNFDCSAMWVKKRTDLTGAFRLDPTYLKHSHQDSGLITDYRHWQIPLGRRFRSLKMWFVFRMYGVKGLQAYIRKHVQLSHEFESLVRQDPRFEICVEVILGLVCFRLKGSNKVNEALLQRINSAKKIHLVPCHLRDKFVLRFAICSRTVESAHVQRAWEHIKELAADVLRAERE
notes: homodimer
Regarding B1, in data set [3], the Km worked out at 230 ± 30 µM and the kcat stood at 3 s⁻¹.
